From patent publication US9365851B2, “Spalt-like transcription factor 4 (SALL4) and uses thereof” (National University of Singapore, priority 2011, dated 2016)
No end group written: not given here.

Tests used:
SNU398 cells = conditions: after addition to cell culture plates
Excerpt: Confocal microscopy was next used to study cellular uptake of TAT-WT by SNU398 cells in vitro.

AML = assay: Cellular uptake of FITC-labeled peptide; type: cell-based, human; conditions: with Chariot
Experimental: (§1) Cells were grown typically in 6 well plates (35 mm dish) to 50-70% confluence. Usually the transfect ion efficiency is somehow cell type specific. 2 mM peptide was diluted 4 times in PBS (2 ul+6 ul) (For FITC peptidedo not dilute the 2 mM stock). For each transfection reaction tube with 100 ul PBS+1 ul diluted peptide was set up. Chariot reagent was diluted 1:10 in ddH2O and for each transfection a 94 ul H2O tube+6 ul diluted Chariot was prepared (No master mix for more than 4 transfections). The 2 tubes were carefully mixed by pipetting up and down and incubated 30 min. at room temperature. Medium was aspirated from the dish (well) and cells were overlay with the mix. 400 ul serum free medium was added and cells were incubated further for 1 h 37 C (cell incubator). 500 ul complete medium (with 10% serum) was finally added. If cells are not very sensitive to serum starvation (cancer cell lines) 5% serum could be used.
(§2) Fluorescent and Confocal microscopy was performed on cells treated with FITC labeled peptides with or without of transfection reagent depending on the cell type. Cells were mounted on cover slips using mounting media with DAPI (Invitrogen) and in some cases cytoskeleton dye (Invitrogen).
(§3) In order to evaluate their cellular uptake and localization, the N terminus of these peptides was labeled with fluorescein isothiocyanate (FITC). Despite the net positive charge of these peptides, their uptake by the cells is cell-type specific. Some cell lines such as HL-60 (an AML cell line) allowed the peptide to enter the cells without any modification or carrier, and some cell lines were not penetrable at all. In order to achieve a similar level of peptide delivery in most cell types, a Chariot Transfection Reagent (Active Motif) was used as a peptide carrier, as directed from the manufacturer. All cell types used in the study described herein were subjected to individual evaluation of the percentage of the cells in which the peptide was delivered as well as the duration of time during which they sustained the labeled peptide in the cells. After Chariot treatment, confocal microscopy studies confirmed uptake of these peptides throughout the cell, including nuclei (as evidenced by DAPI overlay, FIG. 1B).

HL60 = assay: Cellular uptake of FITC-labeled peptide; type: cell-based, human; conditions: HL60, no carrier
Experimental: as §1, §2, §3

HuH-7 = assay: Cellular uptake of FITC-labeled peptide; type: cell-based, human; conditions: HuH-7, with Chariot
Experimental: as §1, §2, §3

SNU387 = assay: Cellular uptake of FITC-labeled peptide; type: cell-based, human; conditions: SNU387, with Chariot
Experimental: as §1, §2, §3

SNU-398 = assay: Cellular uptake of FITC-labeled peptide; type: cell-based, human; conditions: SNU-398, with Chariot
Experimental: as §1, §2, §3
Next tested was the cellular uptake and localization of these peptides in various types of cells using FITC-labeled wild type or scrambled peptides. Despite the net positive charge of these peptides, their penetration into cells is cell type-specific. Some cell lines, such as HL-60 (an AML cell line), allowed peptide entry without any modification or facilitator, while others such as SNU-398 were not penetrable at all. […] The overall success rate of peptide uptake by the cells was above 95% with Pep-1, as evaluated by flow cytometry (FIG. 9A). […]

AML3 = assay: Cellular uptake of FITC-labeled peptide; type: cell-based; conditions: AML3, no carrier
Experimental: as §1, §2, §3

CD34+ = assay: Cellular uptake of FITC-labeled peptide; type: cell-based; conditions: with Chariot
Experimental: as §1, §2, §3

KG1a = assay: Cellular uptake of FITC-labeled peptide; type: cell-based; conditions: no carrier
Experimental: as §1, §2, §3

MCF7 = assay: Cellular uptake of FITC-labeled peptide; type: cell-based; conditions: MCF7, with Chariot
Experimental: as §1, §2, §3

AN3CA cells = assay: In vivo metastasis assay (retro-orbital injection) in NOD/SCID mice; conditions: 6 weeks after injection
Experimental: All experimental procedures involving animals were conducted in accordance with the institutional guidelines set forth by the Children's Hospital Boston (CHB animal protocol number 11-09-2022). Eight to ten-week-old NOD/SCID mice were housed in a specific pathogen-free facility. To generate a xenograft mouse model, NOD/SCID mice were injected with 2×10^6 cells into right flanks. Cells were resuspended in 0.1 ml of PBS and then mix with 0.1 ml of matrigel. Two cell lines were prepared for xenografts: AN3CA and HEC-1A. Tumor sizes were measured weekly. As for metastasis mouse model, 1×10^6 AN3CA cells—were injected via the retro-orbital sinus as described previously (2). […] Cell proliferation in tumor was determined by staining histological sections with monoclonal antibody against Ki-67 (BD, Cat. No. 556003), and apoptosis was evaluated by terminal uridine deoxynucleotidyl transferase dUTP nick end labeling (TUNEL) assay (in situ cell death detection kit, Promega, Cat. No. G3250) according to manufacturer's protocol.
Next assessed was whether loss of SALL4 could affect tumor invasiveness. […] The invasive potential of these three cell lines in vitro: AN3CA, HEC-1A and Ishikawa cells was compared, and a strong association between SALL4 expression and invasive capacity was detected, with Ishikawa showing the least migration/invasion ability (data not shown). […]

SALL4A and SALL4B = assay: SALL4 knock-down in endometrial cancer cells (Western blot, qRT-PCR); type: cell-based, human; conditions: AN3CA and HEC-1A
Excerpt: In brief, the expression plasmids for human SALL4A and SALL4B were constructed using FUW-Luc-mCh-puro vector (FIG. 43A). SALL4A or SALL4B mutant preserving the same amino acid sequence, but containing triple-point mutations within the SALL4shRNA1 target nucleotide sequence, which renders the transgenes resistant to SALL4 shRNA targeting, were generated using QuikChange site-directed mutagenesis kit (Stratagene) and confirmed by sequencing. Short hairpin RNAs set for human SALL4 in pLKO.1-puro vector were purchased from Open Biosystems (RHS3979) and knockdown efficiency was further evaluated. Two of them, designated as SALL4shRNA1 and SALL4shRNA 2, were selected for subsequent experiments. The sequences for SALL4 shRNAs and Scramble shRNA are listed as following: SALL4shRNA1: […] (SEQ ID NO: 3); SALL4shRNA 2: CTATTTAGCCAAAGGCAAA (SEQ ID NO: 2); Scr-shRNA: […] (SEQ ID NO: 14)
To assess the biological functional role of SALL4 in endometrial cancer, first evaluated was SALL4 expression in a panel of six endometrial cancer cell lines using quantitative real-time PCR to select for appropriate models for our functional studies (FIG. 40). […]

Sequence: YGRKKRRQRRRMSRRKQAKPHI [TAT-WT, NH2-YGRKKRRQRRR-MSRRKQAKPHI-COOH]
- time to localization within the nucleus (SNU398 cells): ≤ 15 min

Sequence: MSRRAQAKPQHI [Mut peptide, MSRRAQAKPQHI, reference compound]
- peptide uptake (cells with peptide) (AML): 50% (Ch)
- peptide uptake (cells with peptide) (HL60): ~50%
- peptide uptake (cells with peptide) (HuH-7): 60% (ch)
- peptide uptake (cells with peptide) (SNU387): 60% (Ch)
- peptide uptake (cells with peptide) (SNU-398): 60% (Ch)
- peptide uptake (cells with peptide) (AML3): ~10%
- peptide uptake (cells with peptide) (CD34+): 50% (Ch)
- peptide uptake (cells with peptide) (KG1a): >15%
- peptide uptake (cells with peptide) (MCF7): 70% (Ch)

Sequence: CCTAAGGTTAAGTCGCCCTCG [scramble shRNA]
- metastatic tumor formation (AN3CA cells): Four out of five

Sequence: GCCTTGAAACAAGCCAAGCTA (expressed or natural sequence) [SALL4-sh1]
- down-regulation of SALL4A and SALL4B (SALL4A and SALL4B): could down-regulate SALL4A and SALL4B efficiently
